Read-outs that look alike come from different tables or passages of the source.
Columns and labels:
FynT enzyme = FynT enzyme (Homo sapiens (Human), UniProt P06241); assay: FynT enzyme activity (IMAP fluorescence polarization assay); type: biochemical; conditions: 60 min pre-incubation, 0.2 μM ATP
Method: FynT enzyme activity is measured using the IMAP (immobilized metal ion affinity-based fluorescence polarization) assay as outlined below.
Test compounds and FynT enzyme are pre-incubated 60 minutes at room temperature, before adding 5 μL/well of 400 nM Fluorescin labeled substrate peptide (p34cdc2 substrate peptide, e.g. #R7157/#R7172, Molecular Devices) in KR-buffer. Final peptide substrate concentration in assay is 100 nM. […] Following incubation for 2 h at room temperature the enzyme reaction is stopped by adding 40 μL/well IMAP Progressive Binding Solution (according to suppliers (Molecular Devices) protocol using 75% 1× buffer A and 25% 1× buffer B with 1:600 Progressive Binding Solution). After 60 min incubation at room temperature in the dark the FP signal is read. […] Values are calculated as percentage of the difference in readout (ΔmPi) of the controls with and without ATP. EC50 values are determined by curve fitting of the experimental results using Activity Base.

Btk enzyme (His-Btk) = Btk enzyme (His-Btk) (Homo sapiens (Human), UniProt Q06187); assay: Btk enzyme activity (IMAP fluorescence polarization assay)
Lck enzyme = Lck enzyme (Homo sapiens (Human), UniProt P06239); assay: Lck enzyme activity (IMAP fluorescence polarization assay); conditions: read-out: EC50 Lck activity values; IMAP, 60 min pre-incubation, 6 μM ATP; bin bound in μM
Src enzyme = Src enzyme (Homo sapiens (Human), UniProt P12931); assay: Src enzyme activity (IMAP fluorescence polarization assay); conditions: read-out: EC50 Src activity values; IMAP, 60 min pre-incubation, 4 μM ATP
Lyn enzyme = Lyn enzyme (Homo sapiens (Human), UniProt P07948); assay: Lyn enzyme activity (IMAP fluorescence polarization assay); conditions: read-out: EC50 Lyn activity values, 60 min pre-incubation, 2 μM ATP, bin bound in μM
[1] = IMAP, 60 min pre-incubation, 5 μM ATP, bin bound in nM
[2] = read-out: EC50 Btk activity values, IMAP, 60 min pre-incubation, 5 μM ATP, bin bound in nM
[3] = IMAP, 60 min pre-incubation, 5 μM ATP, bin bound in μM

Sequence of FynT enzyme (P06241 other isoform, or with tags, fused parts or gaps): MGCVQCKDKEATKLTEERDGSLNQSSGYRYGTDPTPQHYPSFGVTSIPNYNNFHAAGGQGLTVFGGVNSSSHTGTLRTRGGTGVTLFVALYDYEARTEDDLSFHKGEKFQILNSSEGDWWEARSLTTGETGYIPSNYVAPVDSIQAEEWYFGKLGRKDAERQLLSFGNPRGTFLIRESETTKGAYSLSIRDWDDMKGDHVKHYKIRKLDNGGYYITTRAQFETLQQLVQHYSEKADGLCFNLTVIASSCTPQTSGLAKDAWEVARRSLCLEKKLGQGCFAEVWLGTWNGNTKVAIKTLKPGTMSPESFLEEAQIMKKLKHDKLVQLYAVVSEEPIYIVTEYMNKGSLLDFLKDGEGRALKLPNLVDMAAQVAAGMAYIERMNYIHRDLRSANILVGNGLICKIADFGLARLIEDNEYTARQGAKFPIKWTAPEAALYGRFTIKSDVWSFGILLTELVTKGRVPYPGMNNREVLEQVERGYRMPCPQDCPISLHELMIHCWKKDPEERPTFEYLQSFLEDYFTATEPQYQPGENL
Sequence of Src enzyme (P12931 whole entry, looked up): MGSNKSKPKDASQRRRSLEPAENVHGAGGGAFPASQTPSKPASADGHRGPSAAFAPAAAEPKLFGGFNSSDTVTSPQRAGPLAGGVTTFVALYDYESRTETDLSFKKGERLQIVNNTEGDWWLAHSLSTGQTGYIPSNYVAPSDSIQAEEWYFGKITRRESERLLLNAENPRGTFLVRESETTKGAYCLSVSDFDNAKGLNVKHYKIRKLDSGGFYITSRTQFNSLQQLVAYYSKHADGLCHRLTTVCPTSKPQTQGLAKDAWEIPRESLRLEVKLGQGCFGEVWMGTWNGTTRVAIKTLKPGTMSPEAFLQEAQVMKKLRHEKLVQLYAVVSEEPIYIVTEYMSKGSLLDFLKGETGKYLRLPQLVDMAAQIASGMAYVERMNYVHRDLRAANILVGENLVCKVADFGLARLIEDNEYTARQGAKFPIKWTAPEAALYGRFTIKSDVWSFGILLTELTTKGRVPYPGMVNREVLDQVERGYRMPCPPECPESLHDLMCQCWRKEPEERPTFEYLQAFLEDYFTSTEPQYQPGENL
Sequence of Lck enzyme (P06239 whole entry): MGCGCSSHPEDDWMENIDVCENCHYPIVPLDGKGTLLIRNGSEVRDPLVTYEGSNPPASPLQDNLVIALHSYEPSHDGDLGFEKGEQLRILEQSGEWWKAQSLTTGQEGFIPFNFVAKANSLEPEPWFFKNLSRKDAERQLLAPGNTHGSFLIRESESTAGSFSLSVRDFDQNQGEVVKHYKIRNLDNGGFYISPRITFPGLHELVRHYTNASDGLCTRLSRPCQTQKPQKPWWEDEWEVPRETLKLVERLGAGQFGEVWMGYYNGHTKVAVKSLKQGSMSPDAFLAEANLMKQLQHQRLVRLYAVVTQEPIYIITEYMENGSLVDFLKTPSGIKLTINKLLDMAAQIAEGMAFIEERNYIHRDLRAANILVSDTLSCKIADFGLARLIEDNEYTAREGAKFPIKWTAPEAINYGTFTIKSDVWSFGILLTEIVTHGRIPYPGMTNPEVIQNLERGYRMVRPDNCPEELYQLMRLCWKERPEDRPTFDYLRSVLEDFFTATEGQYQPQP
Sequence of Btk enzyme (His-Btk) (Q06187 whole entry): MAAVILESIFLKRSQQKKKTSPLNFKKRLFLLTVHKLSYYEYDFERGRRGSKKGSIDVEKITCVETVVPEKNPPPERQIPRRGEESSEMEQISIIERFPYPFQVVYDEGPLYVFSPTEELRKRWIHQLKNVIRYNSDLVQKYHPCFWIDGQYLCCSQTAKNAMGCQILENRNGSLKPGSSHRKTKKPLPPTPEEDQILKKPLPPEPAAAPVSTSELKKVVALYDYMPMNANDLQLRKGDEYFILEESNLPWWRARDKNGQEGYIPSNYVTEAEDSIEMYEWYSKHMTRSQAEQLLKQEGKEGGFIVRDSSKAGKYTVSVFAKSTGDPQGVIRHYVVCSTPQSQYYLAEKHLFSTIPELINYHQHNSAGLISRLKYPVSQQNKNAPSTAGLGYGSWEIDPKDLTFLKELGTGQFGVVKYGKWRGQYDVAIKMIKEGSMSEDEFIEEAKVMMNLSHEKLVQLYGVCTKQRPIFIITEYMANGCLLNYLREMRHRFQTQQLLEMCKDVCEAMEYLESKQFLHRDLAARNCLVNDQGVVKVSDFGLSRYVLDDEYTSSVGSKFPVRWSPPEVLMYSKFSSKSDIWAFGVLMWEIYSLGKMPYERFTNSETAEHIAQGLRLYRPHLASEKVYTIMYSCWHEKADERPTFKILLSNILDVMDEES
Sequence of Lyn enzyme (P07948 whole entry): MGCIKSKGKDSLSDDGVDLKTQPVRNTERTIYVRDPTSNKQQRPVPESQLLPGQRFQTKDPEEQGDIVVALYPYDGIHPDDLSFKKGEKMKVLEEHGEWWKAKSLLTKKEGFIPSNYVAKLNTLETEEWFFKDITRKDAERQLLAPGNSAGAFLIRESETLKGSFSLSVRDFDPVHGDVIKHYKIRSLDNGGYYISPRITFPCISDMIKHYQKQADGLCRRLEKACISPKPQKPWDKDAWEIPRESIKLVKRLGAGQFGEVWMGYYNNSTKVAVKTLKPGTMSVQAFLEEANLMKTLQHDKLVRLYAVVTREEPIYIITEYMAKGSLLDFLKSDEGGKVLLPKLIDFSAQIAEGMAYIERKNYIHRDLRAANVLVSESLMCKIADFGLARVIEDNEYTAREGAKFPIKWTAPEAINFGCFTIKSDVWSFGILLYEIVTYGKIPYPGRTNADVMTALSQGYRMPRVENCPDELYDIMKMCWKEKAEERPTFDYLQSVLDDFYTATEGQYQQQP

| EC50 (FynT enzyme) | EC50 (Btk enzyme (His-Btk)) | EC50 Btk activity values (Btk enzyme (His-Btk); [1]) | EC50 (Lck enzyme) | EC50 (Src enzyme) | EC50 (Lyn enzyme) | EC50 (Btk enzyme (His-Btk); [2]) | EC50 Btk activity values (Btk enzyme (His-Btk); [3]) | Compound |
| --- | --- | --- | --- | --- | --- | --- | --- | --- |
| ≥ 1000 nM | 10 to 100 nM | <100 nM | ≥ 1 µM | ≥ 1000 nM | ≥ 1 µM |  |  | COCC#CC(=O)N1CCC[C@H]1c1nc(-c2ccc(C(=O)Nc3ccccn3)cc2)c2c(N)nccn12 [Example 41, (S)-4-(8-Amino-3-(1-(4-methoxybut-2-ynoyl)pyrrolidin-2-yl)imidazo[1,5-a]pyrazin-1-yl)-N-(pyridin-2-yl)benzamide] |
| ≥ 1000 nM |  |  | ≥ 1 µM | ≥ 1000 nM | ≥ 1 µM | < 10 nM |  | CC#CC(=O)N1CCCC[C@H]1c1nc(-c2ccc(C(=O)Nc3cc(F)ccn3)cc2)c2c(N)nccn12 [Example 44, (S)-4-(8-amino-3-(1-but-2-ynoylpiperidin-2-yl)imidazo[1,5-a]pyrazin-1-yl)-N-(4-fluoropyridin-2-yl)benzamide] |
| ≥ 1000 nM |  |  | ≥ 1 µM | ≥ 1000 nM | ≥ 1 µM | < 10 nM |  | CC#CC(=O)N1CCCC[C@H]1c1nc(-c2ccc(C(=O)Nc3ccccn3)cc2)c2c(N)nccn12 [Example 45, (S)-4-(8-amino-3-(1-but-2-ynoylpiperidin-2-yl)imidazo[1,5-a]pyrazin-1-yl)-N-(pyridin-2-yl)benzamide] |
| ≥ 1000 nM |  |  | ≥ 1 µM | ≥ 1000 nM | ≥ 1 µM | < 10 nM |  | CC#CC(=O)N1CCC[C@H]1c1nc(-c2ccc(C(=O)Nc3cc(CCC)ccn3)cc2)c2c(N)nccn12 [Example 47, (S)-4-(8-amino-3-(1-but-2-ynoylpyrrolidin-2-yl)imidazo[1,5-a]pyrazin-1-yl)-N-(4-propylpyridin-2-yl)benzamide] |
| ≥ 1000 nM | 10 to 100 nM | <100 nM | ≥ 1 µM | ≥ 1000 nM | ≥ 1 µM |  |  | CC#CC(=O)N1CCC[C@H]1c1nc(-c2ccc(C(=O)Nc3ccccn3)c(F)c2)c2c(N)nccn12 [Example 50, (S)-4-(8-amino-3-(1-but-2-ynoylpyrrolidin-2-yl)imidazo[1,5-a]pyrazin-1-yl)-2-fluoro-N-(pyridin-2-yl)benzamide] |
| ≥ 1000 nM | 100 to 1000 nM |  | ≥ 1 µM | ≥ 1000 nM | ≥ 1 µM |  | <1000 nM | COC/C=C/C(=O)N1CCC[C@H]1c1nc(-c2ccc(C(=O)Nc3ccccn3)c(F)c2)c2c(N)nccn12 [Example 52] |

More lines, now with the values behind:

| Compound | EC50 (FynT enzyme) | EC50 (Btk enzyme (His-Btk)) | EC50 Btk activity values (Btk enzyme (His-Btk); [1]) | EC50 (Lck enzyme) | EC50 (Src enzyme) | EC50 (Lyn enzyme) | EC50 (Btk enzyme (His-Btk); [2]) | EC50 Btk activity values (Btk enzyme (His-Btk); [3]) |
| --- | --- | --- | --- | --- | --- | --- | --- | --- |
| C=CC(=O)N1CCC[C@H]1c1nc(-c2ccc(C(=O)Nc3cc(F)ccn3)cc2)c2c(N)nccn12 [Example 42, (S)-4-(3-(1-acryloylpyrrolidin-2-yl)-8-aminoimidazo[1,5-a]pyrazin-1-yl)-N-(4-fluoropyridin-2-yl)benzamide] | ≥ 1000 nM |  |  | ≥ 1 µM | ≥ 1000 nM | ≥ 1 µM | < 10 nM |  |
| C=CC(=O)N1CCC[C@H]1c1nc(-c2ccc(C(=O)Nc3cc(N4CCCC4)ccn3)cc2)c2c(N)nccn12 [Example 43, (S)-4-(3-(1-acryloylpyrrolidin-2-yl)-8-aminoimidazo[1,5-a]pyrazin-1-yl)-N-(4-(pyrrolidin-1-yl)pyridin-2-yl)benzamide] | ≥ 1000 nM |  |  | ≥ 1 µM | ≥ 1000 nM | ≥ 1 µM | < 10 nM |  |
| C=CC(=O)N1CCCC[C@H]1c1nc(-c2ccc(C(=O)Nc3ccccn3)cc2)c2c(N)nccn12 [Example 46, (S)-4-(3-(1-acryloylpiperidin-2-yl)-8-aminoimidazo[1,5-a]pyrazin-1-yl)-N-(pyridin-2-yl)benzamide] | ≥ 1000 nM |  |  | ≥ 1 µM | ≥ 1000 nM | ≥ 1 µM | < 10 nM |  |
| CCCc1ccnc(NC(=O)c2ccc(-c3nc([C@H](C)N(C)C(=O)/C=C/COC)n4ccnc(N)c34)cc2)c1 [Example 48, (S,E)-4-(8-amino-3-(1-(4-methoxy-N-methylbut-2-enamido)ethyl)imidazo[1,5-a]pyrazin-1-yl)-N-(4-propylpyridin-2-yl)benzamide] | ≥ 1000 nM |  |  | ≥ 1 µM | ≥ 1000 nM | ≥ 1 µM | < 10 nM |  |
| C=CS(=O)(=O)N1CCCC[C@H]1c1nc(-c2ccc(C(=O)Nc3cc(CCC)ccn3)cc2)c2c(N)nccn12 [Example 49, (S)-4-(8-amino-3-(1-(vinylsulfonyl)piperidin-2-yl)imidazo[1,5-a]pyrazin-1-yl)-N-(4-propylpyridin-2-yl)benzamide] | ≥ 1000 nM |  |  | ≥ 1 µM | ≥ 1000 nM | ≥ 1 µM | < 10 nM |  |
| COC/C=C/C(=O)N1CCC[C@H]1c1nc(-c2ccc(C(=O)Nc3cc(OC)ccn3)cc2)c2c(N)nccn12 [Example 51, (S,E)-4-(8-amino-3-(1-(4-methoxybut-2-enoyl)pyrrolidin-2-yl)imidazo[1,5-a]pyrazin-1-yl)-N-(4-methoxypyridin-2-yl)benzamide] | ≥ 1000 nM | 10 to 100 nM | <100 nM | ≥ 1 µM | ≥ 1000 nM | ≥ 1 µM |  |  |
| COC/C=C/C(=O)N1CCC[C@H]1c1nc(-c2ccc(C(=O)Nc3cc(F)ccn3)cc2)c2c(N)nccn12 [Example 53, (S,E)-4-(8-amino-3-(1-(4-methoxybut-2-enoyl)pyrrolidin-2-yl)imidazo[1,5-a]pyrazin-1-yl)-N-(4-fluoropyridin-2-yl)benzamide] | ≥ 1000 nM | 100 to 1000 nM |  | ≥ 1 µM | ≥ 1000 nM | ≥ 1 µM |  | <1000 nM |
| COC/C=C/C(=O)N1CCCC[C@H]1c1nc(-c2ccc(C(=O)Nc3ccon3)cc2)c2c(N)nccn12 [Example 54, (S,E)-4-(8-amino-3-(1-(4-methoxybut-2-enoyl)piperidin-2-yl)imidazo[1,5-a]pyrazin-1-yl)-N-(isoxazol-3-yl)benzamide] | ≥ 1000 nM | 100 to 1000 nM |  | ≥ 1 µM | ≥ 1000 nM | ≥ 1 µM |  | <1000 nM |
| COC/C=C/C(=O)N1CCCC[C@H]1c1nc(-c2ccc(C(=O)Nc3ncccn3)cc2)c2c(N)nccn12 [Example 55, (S,E)-4-(8-amino-3-(1-(4-methoxybut-2-enoyl)piperidin-2-yl)imidazo[1,5-a]pyrazin-1-yl)-N-(pyrimidin-2-yl)benzamide] | ≥ 1000 nM | 100 to 1000 nM |  | ≥ 1 µM | ≥ 1000 nM | ≥ 1 µM |  | <1000 nM |
| Cc1cc(C(=O)Nc2ccccn2)ccc1-c1nc([C@@H]2CCCCN2C(=O)c2ccnc(Cl)n2)n2ccnc(N)c12 [Example 56, 4-(8-amino-3-((S)-1-(2-chloropyrimidine-4-carbonyl)piperidin-2-yl)imidazo[1,5-a]pyrazin-1-yl)-3-methyl-N-(pyridin-2-yl)benzamide] | ≥ 1000 nM | 10 to 100 nM | <100 nM | ≥ 1 µM | ≥ 1000 nM | ≥ 1 µM |  |  |
| COC/C=C/C(=O)N1CCC[C@H]1c1nc(-c2ccc(C(=O)Nc3cc(C)ccn3)cc2)c2c(N)nccn12 [Example 57, (S,E)-4-(8-amino-3-(1-(4-methoxybut-2-enoyl)pyrrolidin-2-yl)imidazo[1,5-a]pyrazin-1-yl)-N-(4-methylpyridin-2-yl)benzamide] | ≥ 1000 nM | 10 to 100 nM | <100 nM | ≥ 1 µM | ≥ 1000 nM | ≥ 1 µM |  |  |
| COC/C=C/C(=O)N1CCC[C@H]1c1nc(-c2ccc(C(=O)Nc3cc(C(C)C)ccn3)cc2)c2c(N)nccn12 [Example 58, (S,E)-4-(8-amino-3-(1-(4-methoxybut-2-enoyl)pyrrolidin-2-yl)imidazo[1,5-a]pyrazin-1-yl)-N-(4-isopropylpyridin-2-yl)benzamide] | ≥ 1000 nM | 10 to 100 nM | <100 nM | ≥ 1 µM | ≥ 1000 nM | ≥ 1 µM |  |  |
| Cc1ccnc(NC(=O)c2ccc(-c3nc([C@@H]4CCCN4C(=O)/C=C/CN(C)C)n4ccnc(N)c34)cc2)c1 [Example 59, (S,E)-4-(8-amino-3-(1-(4-(dimethylamino)but-2-enoyl)pyrrolidin-2-yl)imidazo[1,5-a]pyrazin-1-yl)-N-(4-methylpyridin-2-yl)benzamide] | ≥ 1000 nM | 10 to 100 nM | <100 nM | ≥ 1 µM | ≥ 1000 nM | ≥ 1 µM |  |  |

Reference: patent publication US9758524B2, “4-imidazopyridazin-1-yl-benzamides as Btk inhibitors” (Merck Sharp & Dohme B.V., priority 2011, dated 2017)
